Source: US7691858B2, “Kinase inhibitors and methods of use thereof” (TargeGen, Inc., priority 2006, dated 2010)

How the values were obtained:
myocardial infarct [1] = experiment: Porcine MI model; type: in vivo, pig
Method: PI3Kγ/δ inhibition limits infarct development in a porcine MI model. In a final series of studies, MIs were modeled in the pig, as this species better approximates human coronary anatomy and responses to myocardial I/R injury. With aggressive model parameters of a 90 min ischemic period, therapeutic dosing 30 min post-reperfusion and infarct measurement at 24 h, we typically observed ischemic zones representing 20-30% of the total LV and 20-30% infarction of this area in control animals. […] Measuring infarct area as percent of total LV ischemic area, infarct size was reduced by 35% (P=0.04). […] Finally, taking advantage of the larger porcine heart to make more detailed measurements, infarct areas within the LV free wall only (as opposed to the free plus attached wall measurements reported up to this point) were also determined, reasoning that free wall infarcts are of greatest relevance to overall myocardial function.
Porcine MI model: All animal studies followed current “NIH Guidelines for the Use of Laboratory Animals” and were performed according to IACUC-approved protocols. Farm swine (Landrace-Duroc cross, 32-41 kg) were acclimated for 1-3 weeks prior to study group randomization. On the day of surgery, animals (fasted overnight) were first administered aspirin, clopridogrel and nifedipine (650, 300 and 300 mg p.o., respectively), followed by atropine sulfate and telazol (0.05 and 7 mg/kg i.m., respectively). Anesthesia was then induced with ketamine and xylazine (25 mg/kg each i.m.) followed by intubation and maintenance on inhaled isoflurane; body temperature was maintained at 35-37° C. using heating pads. For each animal, the ventral neck was shaved and scrubbed with iodine, an arterial sheath inserted into the carotid artery, and under fluoroscopic guidance a guide catheter advanced to the coronary artery ostium. Angiographic images were used to guide angioplasty balloon placement (below the first major LAD bifurcation). After advancing through the guide catheter to the proper location, the balloon was inflated at a steady rate to a pressure sufficient to ensure complete occlusion of the LAD (verified by fluoroscopy), and occlusion maintained for 90 min. Blood pressure was monitored throughout the surgical procedure and adjusted as needed, and ECG monitored for arrhythmias as well as to confirm LAD occlusion. Lactated Ringer's solution was maintained as an i.v. drip (via the auricular vein), and heparin given to maintain an activated clotting time of ˜300 seconds. […] At the end of the ischemic period, the balloon was deflated and removed, and the ischemic area allowed to reperfuse (again verified by fluoroscopy). Catheters were removed, the arterial access ligated, the surgical area closed in layers and buprenorphine (0.01 mg/kg i.m.) administered.
On Study Day 2 (24 hr post-LAD occlusion), a surgical plane of anesthesia was established with sodium pentobarbital, and the LAD exposed and occluded using a suture snare at the same level as previously. Evans blue dye (100 ml of 0.1% saline solution) was injected i.v. and allowed to circulate for 5 min prior to explanting the heart. Hearts were cut into approximately 1 cm short axis slices and TTC stained and photographed as described for the rodent MI model. […]

CK2 = molecular target: T1, CK2 (Homo sapiens, UniProt P68400); experiment: Kinase panel screen; type: biochemical; details: Compound I at 1 μM and ATP at the apparent Km
T1 construct: purchased Upstate USA or Invitrogen (contract screening service)

myocardial infarct [2] = experiment: Rodent model of acute myocardial infarct (LAD occlusion/reperfusion); type: in vivo, Sprague-Dawley rats
Method: A rodent model of acute myocardial infarct, in which the proximal left anterior descending coronary artery (LAD) is occluded for 60 min followed by reperfusion, was used to determine whether test agents reduced infarct size at 24 hours.
Myocardial infarcts were created in Sprague-Dawley rats (200-300 g body weight) by a 60 min occlusion of the LAD followed by LAD reperfusion. […] At 24 hr post-treatment, the ischemic zone (area at-risk, AAR) was delineated by re-ligation of the LAD followed by IV injection of alkali blue dye, after which hearts were sectioned along the short axis and stained using triphenyltetrazolium chloride to delineate viable from infarcted myocardium. Photographic images were then analyzed using morphometric software to calculate infarct area as a percent of the at-risk area.
Rodent MI model: All animal studies followed current “NIH Guidelines for the Use of Laboratory Animals” and were performed according to IACUC-approved protocols. Sprague-Dawley rats (275-300 g) were anesthetized using inhaled isoflurane after which chest walls were shaved and swabbed with iodine. Animals were then intubated and maintained on 2% isoflurane (delivered in 30% O2/70% N2), with optimal respiratory rate and stroke volumes set by a volume-controlled safety ventilator (Inspira Advanced Safety Ventilator; Harvard Apparatus, Holliston, Mass.). Body temperatures were maintained at 35-37° C. using heating pads and five-lead electrocardiograms established. For each animal, a left thoracotomy was performed at the third intercostal space, the heart was exposed and a suture snare tightened around the LAD at the point it appeared from beneath the left atrium. Ischemia was confirmed from blanching of the left ventricle (LV) as well as changes in ECG patterns. After the desired period of occlusion (60 min in the standard model), the suture snare was loosened to allow complete reperfusion (but retained in place using shallow sutures) and the chest closed in layers. […].
For infarct size determination, LAD occlusion was repeated on each animal 24 hr after the initial occlusion. The ischemic zone (area-at-risk or AAR) was then delineated by i.v. injection of Evans blue dye (5 ml of a 10% saline solution containing 100 U/ml sodium heparin). The heart was explanted, atria and right ventricle trimmed free, and the LV (septal and free walls) frozen at −20° C. to induce rigor. After thawing on ice, the LV was subdivided into six 2 mm thick sections along the short axis using a metal form to guide dissection. Heart sections were stained for 20 min in 37° C. triphenyltetrazolium chloride (TTC, 2% in 0.04 M K2HPO4/0.17 M sucrose) to delineate viable from infarcted myocardium, fixed for 20 min in 10% formalin, then rinsed in saline. For each section, photographs were taken of both anterior and posterior surfaces and these images analyzed (by personnel blinded as to treatment identity) using a morphometric software package (Image Pro Plus; Media Cybernetics, Silver Spring, Md.). The following areas were calculated, based on their differing pixel densities: non-ischemic zone (Evans blue-stained), viable-but-ischemic zone (free of Evans blue but TTC-stained), and infarct-within-ischemic zone (free of both Evans blue and TTC stain). Area values for anterior and posterior views were averaged, and these values used to calculate the following AAR=Viable-but-ischemic Area+Infarct Area Equation 1 Total LV Area=AAR+Non-ischemic Area Equation 2

CHK2 = molecular target: T2, CHK2 (Homo sapiens, UniProt O96017); experiment: Kinase panel screen; type: biochemical; details: Compound I and ATP 10 μM
T2 construct: purchased Upstate USA or Invitrogen (contract screening service)

Hck = molecular target: T3, Hck (Homo sapiens, UniProt P08631); experiment: Kinase panel screen; type: biochemical; details: Compound I and ATP 10 μM
T3 construct: purchased Upstate USA or Invitrogen (commercial screening service)

[3] = single 0.5 mg/kg i.v. bolus 30 min post-reperfusion, 24 h

T2 sequence (O96017 whole entry): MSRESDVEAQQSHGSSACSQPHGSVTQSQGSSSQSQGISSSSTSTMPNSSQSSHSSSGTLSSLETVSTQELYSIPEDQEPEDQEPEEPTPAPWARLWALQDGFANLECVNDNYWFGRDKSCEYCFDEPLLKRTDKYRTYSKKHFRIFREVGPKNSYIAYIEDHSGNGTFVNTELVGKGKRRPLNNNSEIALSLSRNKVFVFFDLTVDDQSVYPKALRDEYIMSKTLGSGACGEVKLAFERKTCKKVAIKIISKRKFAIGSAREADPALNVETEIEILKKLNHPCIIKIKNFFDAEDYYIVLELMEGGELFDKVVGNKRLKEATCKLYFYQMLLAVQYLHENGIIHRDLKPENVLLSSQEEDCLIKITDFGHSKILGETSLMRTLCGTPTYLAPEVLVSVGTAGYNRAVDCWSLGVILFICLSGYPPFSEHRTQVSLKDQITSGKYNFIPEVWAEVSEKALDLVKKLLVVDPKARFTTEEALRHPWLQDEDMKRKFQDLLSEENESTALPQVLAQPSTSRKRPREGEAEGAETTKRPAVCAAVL
T3 sequence (P08631 whole entry): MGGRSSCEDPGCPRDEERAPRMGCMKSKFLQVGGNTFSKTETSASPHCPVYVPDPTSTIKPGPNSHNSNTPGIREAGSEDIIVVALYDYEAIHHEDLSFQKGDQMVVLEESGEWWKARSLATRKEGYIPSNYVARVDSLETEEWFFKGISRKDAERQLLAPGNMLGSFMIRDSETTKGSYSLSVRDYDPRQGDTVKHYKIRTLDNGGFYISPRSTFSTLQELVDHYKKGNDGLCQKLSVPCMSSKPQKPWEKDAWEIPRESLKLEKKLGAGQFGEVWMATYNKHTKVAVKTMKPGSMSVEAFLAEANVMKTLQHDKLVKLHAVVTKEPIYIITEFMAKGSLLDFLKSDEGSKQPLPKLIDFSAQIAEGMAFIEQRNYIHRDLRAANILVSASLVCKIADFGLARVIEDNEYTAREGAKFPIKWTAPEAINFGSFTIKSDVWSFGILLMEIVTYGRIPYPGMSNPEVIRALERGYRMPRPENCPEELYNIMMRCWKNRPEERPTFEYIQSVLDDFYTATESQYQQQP
T1 sequence (P68400 whole entry): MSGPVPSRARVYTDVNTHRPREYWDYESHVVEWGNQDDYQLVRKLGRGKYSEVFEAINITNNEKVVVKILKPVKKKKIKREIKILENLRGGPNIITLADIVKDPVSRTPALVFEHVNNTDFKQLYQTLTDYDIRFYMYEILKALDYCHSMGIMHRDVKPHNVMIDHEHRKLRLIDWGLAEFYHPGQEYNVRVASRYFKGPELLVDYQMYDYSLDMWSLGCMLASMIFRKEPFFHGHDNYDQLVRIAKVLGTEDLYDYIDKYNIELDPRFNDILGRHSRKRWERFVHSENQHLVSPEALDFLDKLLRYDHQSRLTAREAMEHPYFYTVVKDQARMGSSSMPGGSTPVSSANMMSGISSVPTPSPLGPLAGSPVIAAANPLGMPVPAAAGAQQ

Question: Which “reduction of infarct size vs. controls” value (myocardial infarct [1]; single 0.3 mg/kg IV bolus 30 min post-reperfusion, N=12-13) does the source give for `Nc1nc(N)c2nc(-c3cccc(O)c3)c(-c3cccc(O)c3)nc2n1` [Compound I, 6,7-bis-(3-hydroxyphenyl)-pteridine-2,4-diamine] here?
Answer: Its value is 32%.

Question: What about the infarct size (myocardial infarct [1]; single 0.3 mg/kg IV bolus 30 min post-reperfusion, controls 56%) of the same compound?
Answer: The infarct size was 40%.

Question: And the “increase in viable tissue within the ischemic zone” value (myocardial infarct [1]; [3])?
Answer: The value was 37%.

Question: What about the “reduction of free wall infarct size vs. vehicle-treated controls” value (myocardial infarct [1]; [3]) of the same compound?
Answer: Its value is 38%.

Question: And the “reduction of infarct size (infarct area as percent of total LV ischemic area)” value (myocardial infarct [1]; [3])?
Answer: Its value is 35%.

Question: What about the “Percent Control, CK2*” value (CK2) of the same compound?
Answer: The value was 96%.

Question: And the “reductions in infarct development vs. vehicle-treated controls” value (myocardial infarct [2]; 0.1 mg/kg, delivery between 0 and 3 h post-reperfusion (FIG. 6b))?
Answer: Its value is 58-67%.

Question: What about the “reduction in infarct size vs. vehicle controls” value (myocardial infarct [2]; rats, 0.3 mg/kg IV bolus 60 min into reperfusion, 24 hr, N=8) of the same compound?
Answer: The value was 43%.

Question: And the “infarct area as percentage of ischemic territory” value (myocardial infarct [2]; rats, 0.3 mg/kg IV bolus 60 min into reperfusion, mean±SD (±9), vehicle 62%±7)?
Answer: Its value is 35%.

Question: And the “improvement in fractional shortening” value (myocardial infarct [2]; single 0.5 mg/kg bolus one hour post-reperfusion, 4 weeks)?
Answer: The value was 24%.

Question: And the “percent left ventricular long axis fractional shortening” value (myocardial infarct [2]; single 0.5 mg/kg bolus one hour post-reperfusion, echocardiography 4 weeks, mean±SEM, vehicle 27.2±1.9)?
Answer: Its value is 33.6±2.0%.

Question: What about the “reduction of infarct size” value (myocardial infarct [2]; single i.v. bolus 60 mm post-reperfusion) of the same compound?
Answer: The value was at least 40%.

Question: What about the “Percent Control, CHK2” value (CHK2) of the same compound?
Answer: Its value is 75%.

Question: And the “Percent Control, Hck” value (Hck)?
Answer: The value was 67%.
